Laboratory results from patent US10517867B2, “Posaconazole derivative, pharmaceutical composition and use thereof” (priority 2016, dated 2019).
Values after ≈ are worked out from the molar mass of the structure shown. Where two headings read alike, the source gives them in different places.

Assays:
[1] = In vitro metabolic stability in rat plasma; type: in vitro ADME; conditions: rat, plasma, 37° C., 10 μM compound, read-out: Rat plasma T1/2
Procedure: (§1) This example detects the metabolic stability of the compounds of the present disclosure in human (rat) plasma and intestinal S9 in vitro. In a human (rat) plasma reaction system, 990 μl of human (rat) plasma was taken and incubated at 37° C. for 5 minutes, and 10 μl of the compound mother liquor was used to initiate the reaction. In the human (rat) intestinal S9 stability experiment, in the order shown in Table 2 below, the samples were added and incubated in a 37° C. water bath to initiate the reaction, each sample performed in triplicates. Respectively, at 1 minute, 2 minutes, 5 minutes, 15 minutes, 30 minutes after the reaction began, 100 μL of each was taken and added to a centrifuge tube containing 400 μL of 0° C. precooled internal standard working solution. The reaction was terminated, vortexed and mixed for 1 minute, centrifuged at 10000×g for 10 minutes in a 4° C. precooled high-speed centrifuge, and the supernatant was detected with HPLC. The test results were used to calculate metabolic half-life using WinNonlin (version 6.2 Pharsight, Mountain View, Calif.) with a non-compartmental model.
(§2) Compound stock solution concentration: 1 mM
(§3) Reaction matrix: human (rat) plasma, intestinal S9 purchased from Research Institute for Liver Diseases (Shanghai) Co., Ltd.

[2] = test system: Candida albicans ATCC10231; experiment: Systemic fungal infection in mice, intragastric administration; type: in vivo, ICR mice; conditions: Candida albicans, ATCC10231, po
Procedure: (§4) ICR mice, weighing 18-22 g, male, provided by Hubei Experimental Animal Center.
Prior to the experiment, a small amount of Candida albicans was picked from an SDA medium kept at 4° C. with an inoculation loop and inoculated into 1 ml YPD culture medium, cultured at 30° C. with 200 rpm shaking and activated for 16 hours, so that the fungus was in the late stage of exponential growth. Counted with a hemocytometer and the fungal solution concentration was adjusted to 1×10^3 to 5×10^3 CFU/ml with RPMI1640 medium. Monoclonal Candida albicans on SDA plate was picked up, inoculated into 1 ml YPD (Yeast Extract Peptone Dextrose Medium, the same below) culture medium, cultured at 35° C., 200 rpm for 16 hours until late exponential growth phase. Candida albicans was inoculated into fresh medium for culturing for 6 hours at 1%, centrifuged at 1000×g for 5 minutes, washed with physiological saline three times until the supernatant was colorless, counted with a hemocytometer, and the cell concentration was adjusted to 5×10^6 cells/ml. A tail vein injection of 0.1 ml/10 g caused a systemic fungal infection in mice. […] A total of 7 days of observations were performed. All dead mice were burned with ethanol.

[3] = In vitro metabolic stability in rat intestine S9; type: in vitro ADME; conditions: rat, intestinal S9, pH 7.4; 37° C., 10 μM compound, 1 mg/mL S9, NADPH regeneration system; read-out: Rat intestine S9 T1/2
Procedure: as §1, §2, §3

[4] = Determination of solubility in deionized water (HPLC, external standard); conditions: 25 °C, water, thermodynamic from solid
[5] = In vitro metabolic stability in human plasma; type: in vitro ADME; conditions: human, plasma, 37° C., 10 μM compound, read-out: Human plasma T1/2
Procedure: as §1, §2, §3

[6] = In vitro metabolic stability in human intestine S9; type: in vitro ADME; conditions: human, intestinal S9; 37° C., 10 μM compound, 1 mg/mL S9, NADPH regeneration system; read-out: Human intestine S9 T1/2
Procedure: as §1, §2, §3

[7] = Solid stability test (stability chamber, HPLC total impurity); type: physicochemical
[8] = test system: Aspergillus Fumigutus (AF) strains; experiment: Aspergillus fumigatus keratitis in rats, intravenous administration; conditions: 10 mg/kg tail vein once daily for 5 days; mean ± SD of 10 rats
[9] = test system: Aspergillus fumigatus AF293; experiment: Lung Aspergillus fumigatus infection in immunosuppressed mice, intravenous administration; conditions: for responders at 20 mg/kg: Aspergillus fumigatus, AF293, in Mus musculus, iv; for lung fungal load: mouse lung tissue, seven days later, 20 mg/kg tail vein once daily for 5 days, mean ± SD
Procedure: ICR male mice were injected intraperitoneally with cyclophosphamide 150 mg/kg and injected subcutaneously with dexamethasone 150 mg/kg for 10 consecutive days. At the same time, the blood was taken to measure the changes of peripheral white blood cells and neutrophils, and mice with neutrophils consistently lower than 100/μl were selected as successfully immunosuppressed mice. Immediately after the last injection, the mice were anesthetized with ethyl ether, and mice were transferred from the initial state of excitement to inhibition. After their bodies were relaxed, the mice were immediately taken. Left hand was used to grasp the mouse to make it stand upright, the middle finger pressed the mouth so that it could breath only with the nose, and the ring finger gently pressed the abdomen to move the diaphragm muscle upward. 30 μl of conidia suspension (Aspergillus fumigatus AF293, 3×10^6 conidia) was sent to the nostrils of the anesthetized mice by a micropipette to allow spontaneous inhalation. After the mouse returned to normal breathing, it was returned to the cage. […] The death of the mice was observed and the survival time was recorded. Seven days later, the mice were sacrificed and their lung tissues were taken to observe the fungal loads of Aspergillus fumigatus in the lungs of the mice.

[10] = test system: Candida albicans ATCC10231; experiment: Systemic fungal infection in mice, intravenous administration; type: in vivo, ICR mice
Procedure: as §4
Prior to the experiment, a small amount of Candida albicans was picked from an SDA (sacharomyces agar, the same below) medium kept at 4° C. with an inoculation loop and inoculated into 1 ml YPD (Yeast Extract Peptone Dextrose Medium) culture medium, cultured at 30° C. with 200 rpm shaking and activated for 16 hours, so that the fungus was in the late stage of exponential growth. Counted with a hemocytometer and the fungal solution concentration was adjusted to 1×10^3-5×10^3 CFU/ml with RPMI1640 medium (Roswell Park Memorial Institute 1640, the same below). Monoclonal Candida albicans on SDA plate was picked up, inoculated into 1 ml YPD (Yeast Extract Peptone Dextrose Medium, the same below) culture medium, cultured at 35° C., 200 rpm for 16 hours until late exponential growth phase. Candida albicans was inoculated into fresh medium for culturing for 6 hours at 1%, centrifuged at 1000×g for 5 minutes, washed with physiological saline three times until the supernatant was colorless, counted with a hemocytometer, and the cell concentration was adjusted to 5×10^6 cells/ml. A tail vein injection of 0.1 ml/10 g caused a systemic fungal infection in mice. […] A total of 7 days of observations were performed. All dead mice were burned with ethanol.

[11] = 24 h, read-out: survival rate of mice, day 1, 20 mg/kg intragastric once daily for 5 days, day 1
[12] = 48 h, read-out: survival rate of mice, day 2, 20 mg/kg intragastric once daily for 5 days, day 2
[13] = 72 h, read-out: survival rate of mice, day 3, 20 mg/kg intragastric once daily for 5 days, day 3
[14] = 96 h, read-out: survival rate of mice, day 4, 20 mg/kg intragastric once daily for 5 days, day 4
[15] = 120 h, read-out: survival rate of mice, day 5, 20 mg/kg intragastric once daily for 5 days, day 5
[16] = 144 h, read-out: survival rate of mice, day 6, 20 mg/kg intragastric once daily for 5 days, day 6
[17] = 168 h, read-out: survival rate of mice, day 7, 20 mg/kg intragastric once daily for 5 days, day 7
[18] = 24 h, read-out: survival rate of mice, day 1, 20 mg/kg tail vein once daily for 5 days, day 1
[19] = 48 h, read-out: survival rate of mice, day 2, 20 mg/kg tail vein once daily for 5 days, day 2
[20] = 72 h, read-out: survival rate of mice, day 3, 20 mg/kg tail vein once daily for 5 days, day 3
[21] = 96 h, read-out: survival rate of mice, day 4, 20 mg/kg tail vein once daily for 5 days, day 4
[22] = 120 h, read-out: survival rate of mice, day 5, 20 mg/kg tail vein once daily for 5 days, day 5
[23] = 144 h, read-out: survival rate of mice, day 6, 20 mg/kg tail vein once daily for 5 days, day 6
[24] = 168 h, read-out: survival rate of mice, day 7, 20 mg/kg tail vein once daily for 5 days, day 7
[25] = 24 h, read-out: survival rate of mice, day 1
[26] = 48 h, read-out: survival rate of mice, day 2
[27] = 72 h, read-out: survival rate of mice, day 3
[28] = 96 h, read-out: survival rate of mice, day 4
[29] = 120 h, read-out: survival rate of mice, day 5
[30] = 144 h, read-out: survival rate of mice, day 6
[31] = 168 h, read-out: survival rate of mice, day 7

SMILES	half-life at 10 µM [1] [min]	responders at 20 mg/kg [2, 11] [%]	responders at 20 mg/kg [2, 12] [%]	responders at 20 mg/kg [2, 13] [%]	responders at 20 mg/kg [2, 14] [%]	responders at 20 mg/kg [2, 15] [%]	responders at 20 mg/kg [2, 16] [%]	responders at 20 mg/kg [2, 17] [%]	half-life at 10 µM [3] [min]	solubility at 30 min [4] [mg/mL]	half-life at 10 µM [5] [min]	half-life at 10 µM [6] [min]	Total impurity increment in 30 days [7] [%]	Amount of active fungi in cornea at day 7 [8]	responders at 20 mg/kg [9, 18] [%]	responders at 20 mg/kg [9, 19] [%]	responders at 20 mg/kg [9, 20] [%]	responders at 20 mg/kg [9, 21] [%]	responders at 20 mg/kg [9, 22] [%]	responders at 20 mg/kg [9, 23] [%]	other results
CC[C@@H]([C@H](C)O)n1ncn(-c2ccc(N3CCN(c4ccc(OC[C@@H]5CO[C@@](Cn6c[n+](C(C)OC(=O)N(C)c7ncccc7COC(=O)[C@@H](N)CCC(N)=O)cn6)(c6ccc(F)cc6F)C5)cc4)CC3)cc2)c1=O (stereo partly drawn) [ST0022]	1.12 ± 0.45	100	100	100	90	80	80	70	19 ± 5.36	> 50	1.39 ± 0.52	17.7 ± 4.52	0.48	–	–	–	–	–	–	–	–
CCC([C@H](C)OC(=O)C(O)C(O)COP(=O)(O)O)n1ncn(-c2ccc(N3CCN(c4ccc(OC[C@@H]5CO[C@@](Cn6cncn6)(c6ccc(F)cc6F)C5)cc4)CC3)cc2)c1=O (stereo partly drawn) [ST0001]	–	–	–	–	–	–	–	–	–	47.7 (≈ 53.1 mM)	–	–	–	3.73 ± 0.63 10^3 CFU/ml	100	100	90	90	80	70	responders at 20 mg/kg [9, 24]: 70%; lung fungal load [9]: 2.28 ± 0.77 10^4 CFU/ml
CC[C@@H]([C@H](C)O)n1ncn(-c2ccc(N3CCN(c4ccc(OC[C@@H]5CO[C@@](Cn6c[n+](C(C)OC(=O)N(C)c7ncccc7COC(=O)[C@@H](N)CC(N)=O)cn6)(c6ccc(F)cc6F)C5)cc4)CC3)cc2)c1=O (stereo partly drawn) [ST0023]	0.55 ± 0.78	100	100	90	90	90	80	80	16.7 ± 2.96	> 50	0.94 ± 0.15	15 ± 3.78	0.42	–	–	–	–	–	–	–	responders at 20 mg/kg [10, 25]: 100%; responders at 20 mg/kg [10, 26]: 100%; responders at 20 mg/kg [10, 27]: 100%; responders at 20 mg/kg [10, 28]: 100%; responders at 20 mg/kg [10, 29]: 100%; responders at 20 mg/kg [10, 30]: 90%; responders at 20 mg/kg [10, 31]: 90%
CC[C@@H]([C@H](C)O)n1ncn(-c2ccc(N3CCN(c4ccc(OC[C@@H]5CO[C@@](Cn6c[n+](C(C)OC(=O)N(C)c7ncccc7COC(=O)[C@@H](N)CO)cn6)(c6ccc(F)cc6F)C5)cc4)CC3)cc2)c1=O (stereo partly drawn) [ST0025]	1.22 ± 0.85	100	100	90	90	80	80	80	22.5 ± 5.96	> 50	0.92 ± 0.03	25 ± 4.76	0.55	–	–	–	–	–	–	–	responders at 20 mg/kg [10, 25]: 100%; responders at 20 mg/kg [10, 26]: 100%; responders at 20 mg/kg [10, 27]: 100%; responders at 20 mg/kg [10, 28]: 100%; responders at 20 mg/kg [10, 29]: 100%; responders at 20 mg/kg [10, 30]: 90%; responders at 20 mg/kg [10, 31]: 90%
CC[C@@H]([C@H](C)O)n1ncn(-c2ccc(N3CCN(c4ccc(OC[C@@H]5CO[C@@](Cn6c[n+](C(C)OC(=O)N(C)c7ncccc7COC(=O)CCC(=O)O)cn6)(c6ccc(F)cc6F)C5)cc4)CC3)cc2)c1=O (stereo partly drawn) [ST0005]	–	–	–	–	–	–	–	–	–	> 50	–	–	–	5.90 ± 1.06 10^3 CFU/ml	100	90	80	80	70	60	responders at 20 mg/kg [9, 24]: 50%; lung fungal load [9]: 3.40 ± 1.26 10^4 CFU/ml
CC[C@@H]([C@H](C)O)n1ncn(-c2ccc(N3CCN(c4ccc(OC[C@@H]5CO[C@@](Cn6c[n+](C(C)OC(=O)N(C)c7ncccc7COC(=O)[C@@H](N)[C@@H](C)O)cn6)(c6ccc(F)cc6F)C5)cc4)CC3)cc2)c1=O (stereo partly drawn) [ST0026]	2.69 ± 1.21	100	100	90	80	70	70	70	19 ± 5.96	> 50	1.03 ± 0.09	16.4 ± 7.54	0.46	–	–	–	–	–	–	–	–
CC[C@@H]([C@H](C)O)n1ncn(-c2ccc(N3CCN(c4ccc(OC[C@@H]5CO[C@@](Cn6c[n+](C(C)OC(=O)N(C)c7ncccc7COC(=O)C[C@H](N)C(=O)O)cn6)(c6ccc(F)cc6F)C5)cc4)CC3)cc2)c1=O (stereo partly drawn) [ST0004]	–	–	–	–	–	–	–	–	–	> 50	–	–	–	5.58 ± 1.12 10^3 CFU/ml	100	90	80	80	70	60	responders at 20 mg/kg [9, 24]: 50%; lung fungal load [9]: 3.51 ± 1.38 10^4 CFU/ml
